Source: US12637468B2, “Substituted [1,2,4]triazolo[4,3-b]pyridazines as GABAA receptor modulators” (SHANGHAI SIMR BIOTECHNOLOGY CO., LTD., priority 2019, dated 2026)
Converted amounts (≈) assume the structure as drawn.

Key:
[1] = Rat liver microsome stability (RLM) experiment; format: in vitro ADME; settings: rat liver microsomal stability, Table 5, compounds of the disclosure and comparative compounds
Procedure: Effect embodiment 3 Rat liver microsome stability (RLM) experiment
Rat liver microsomes (Xenotech, item No. R1000, lot No. 1310030), 100 mM potassium phosphate buffer solution (pH 7.4), 10 mM magnesium chloride.
Compound preparation: 5 μL of compound DMSO mother liquor (10 mM) was added to 495 μL of methanol to obtain an intermediate solution with a compound concentration of 100 μM. Then 50 μL of the intermediate solution was taken and dissolved in 450 μL of potassium phosphate buffer solution to obtain a test solution with a final concentration of 10 μM.
NADPH regeneration system (concentration of isocitrate dehydrogenase 1 unit/mL).
Liver microsomes (final concentration 0.5 mg protein/mL).
Reaction termination solution: cold acetonitrile containing 100 ng/mL Tolbutamide and 100 ng/mL Labetalol as an internal standard.
• (1) Preparation of buffer solution: • Buffer solution A: 1.0 L of 0.1 M potassium phosphate buffer solution containing 1.0 mM EDTA • Buffer solution B: 1.0 L of 0.1 M dipotassium phosphate buffer solution containing 1.0 mM EDTA • Buffer solution C: 0.1 M potassium phosphate buffer, 1.0 mM EDTA, pH 7.4, titrated with 700 mL of buffer solution B and buffer solution A, monitored by pH meter. • (2) Preparation of reference substance (ketanserin) and concentration of administration solution of the test substance:
[…]: […] 10 mM DMSO reference substance stock solution and test substance stock solution were added to 190 μL of ACN, respectively. 1.5 μM administration solution (containing 0.75 mg/mL liver microsomes): […] administration solution and 18.75 μL of 20 mg/mL liver microsomes were added to 479.75 μL of buffer C on a wet ice. • (3) NADPH was added to buffer solution C to obtain a NADPH stock solution (6 mM). • (4) 30 μL of 1.5 μM administration solution (containing 0.75 mg/mL of liver microsomes) was taken on the wet ice and added to the wells of the test plate at different time points (0-, 5-, 15-, 30-, 45-min), respectively. • (5) Firstly, 135 μL of ACN containing IS was added to the wells of a 0 min test plate, and then 15 μL of the NADPH stock solution (6 mM) was added. • (6) The test plate at other time points and the NADPH stock solution were pre-heated in a 37° C. water bath for 5 minutes. • (7) 15 μL of the NADPH stock solution (6 mM) was taken and added to a pre-incubated test plate, and the reaction was started and timed. • (8) At 5 min, 15 min, 30 min and 45 min, 135 μL of CAN containing IS was added to the corresponding test plate respectively, and the test was completed. • (9) Test plates were shaken with a shaker (IKA, MTS 2/4) for 10 min (600 rpm/min) and then centrifuged for 15 min (Thermo Multifuge×3R, 5594 g). • (10) 50 μL of supernatant from each well was added to a 96-well sample plate containing 50 μL of ultrapure water (Millipore, ZMQS50F01), and the samples were analyzed by LC/MS.

α5-GABAA receptor = molecular target: T1, α5-GABAA receptor (Homo sapiens, UniProt P18507+P31644); experiment: Cell-level screening: whole cell patch clamp, inverse agonist efficacy on α5-GABAA receptor expressed in HEK293; format: cell-based; settings: drug 100 nM, GABA 0.05 μM, HEK293 expressing α5, β3 and γ2 subunits, clamped at −60 mV; read-out: Compound inverse agonist efficacy %
T1 construct: expressed in transfected cells; host or cells: HEK293, monoclonal stably transfected line
T1 sequence (P31644 32-462): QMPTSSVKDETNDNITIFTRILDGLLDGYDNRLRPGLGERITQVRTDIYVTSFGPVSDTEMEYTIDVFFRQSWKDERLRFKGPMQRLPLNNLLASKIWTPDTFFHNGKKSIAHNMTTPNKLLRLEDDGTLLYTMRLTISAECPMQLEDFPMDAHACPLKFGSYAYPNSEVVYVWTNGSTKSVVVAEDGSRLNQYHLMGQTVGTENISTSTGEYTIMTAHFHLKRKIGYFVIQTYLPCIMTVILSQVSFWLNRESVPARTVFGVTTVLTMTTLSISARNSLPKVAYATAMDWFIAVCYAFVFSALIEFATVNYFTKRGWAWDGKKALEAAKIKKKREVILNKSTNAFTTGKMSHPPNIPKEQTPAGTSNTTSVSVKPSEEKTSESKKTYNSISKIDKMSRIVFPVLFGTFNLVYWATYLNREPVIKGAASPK
T1 sequence (P28472 26-473 partner): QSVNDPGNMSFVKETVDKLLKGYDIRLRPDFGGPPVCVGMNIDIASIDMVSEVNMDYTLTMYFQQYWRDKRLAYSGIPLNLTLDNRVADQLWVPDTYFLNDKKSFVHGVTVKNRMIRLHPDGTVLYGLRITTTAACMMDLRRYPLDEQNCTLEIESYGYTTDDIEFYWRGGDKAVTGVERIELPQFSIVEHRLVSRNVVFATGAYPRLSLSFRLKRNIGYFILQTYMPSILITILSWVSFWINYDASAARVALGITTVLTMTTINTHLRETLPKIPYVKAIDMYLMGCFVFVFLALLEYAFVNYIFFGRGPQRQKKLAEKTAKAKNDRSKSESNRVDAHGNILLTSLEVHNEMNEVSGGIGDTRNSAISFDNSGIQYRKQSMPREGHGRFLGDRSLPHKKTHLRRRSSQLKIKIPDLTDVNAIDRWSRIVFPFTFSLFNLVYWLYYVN
T1 sequence (P18507 40-467 isoform P18507-1 limits assumed): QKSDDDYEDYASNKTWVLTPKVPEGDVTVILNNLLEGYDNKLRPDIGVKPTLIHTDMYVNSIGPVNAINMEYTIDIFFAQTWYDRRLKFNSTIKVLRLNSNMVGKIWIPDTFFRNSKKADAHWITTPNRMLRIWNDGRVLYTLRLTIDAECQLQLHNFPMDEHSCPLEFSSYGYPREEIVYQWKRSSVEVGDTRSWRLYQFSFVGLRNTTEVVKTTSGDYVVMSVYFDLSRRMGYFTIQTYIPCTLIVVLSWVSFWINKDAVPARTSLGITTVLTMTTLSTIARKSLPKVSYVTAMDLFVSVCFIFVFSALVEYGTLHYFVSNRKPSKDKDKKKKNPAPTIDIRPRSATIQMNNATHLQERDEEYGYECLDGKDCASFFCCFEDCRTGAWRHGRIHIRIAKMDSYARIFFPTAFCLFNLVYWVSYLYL
Procedure, shortened: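 Whole-cell patch clamp at −60 mV on HEK293 stably expressing α5β3γ2, pH 7.4 extracellular/CsCl internal solutions. Current evoked by 0.05 μM GABA, then compound in GABA solution; screening at 100 nM, dose-response 0.3–300 nM. Inverse agonist efficacy as % change of GABA current.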

[2] = Thermodynamic solubility in simulated intestinal fluid (TS in FaSSIF); format: physicochemical; settings: thermodynamic from solid, 37° C.
Procedure: Simulated intestinal fluid FaSSIF: 54.76 mg of FaSSIF-V2 (Biorelevant, batch. V2FAS-0619-A, lot. V2FAS01) was weighed and added to 15 mL of a buffer solution. After dissolving, the solution was supplemented to 30 mL, and put at room temperature for 1 hour before use.
Waters e2695 HPLC high performance liquid chromatography, Mettler XSE105 analytical balance.
Firstly, a 10 mM stock solution was prepared with DMSO, and was diluted with a diluent (ACN: PB buffer 50:50) into 1 μM-200 μM as a standard solution.
Thermodynamic solubility in intestinal fluid (TS in FaSSIF) was simulated. About 0.3 mg of each sample was weighed and added to 1.5 mL of FaSSIF solution, with two parts in parallel, shaken at 1000 rpm at 37° C. for 4 hours, filtered. 1 mL of an initial filtrate was discarded, and 400 μL of the subsequent filtrate was taken. The filtrate was detected by high performance liquid chromatograph (UV).

Compound	RLM [1]	inhibition at 0.1 µM (α5-GABAA receptor)	solubility thermodynamic at 4 h [2]
Cc1cc(-c2nnc3cc(C(C)(C)C)c(OCc4ccccn4)nn23)no1 [drawing 924, reference compound]	33.6 µL/min/mg	–	–
Cc1cc(-c2nnc3c4ccccc4c(OCc4ccccn4)nn23)no1 [drawing 923, reference compound]	28.2 µL/min/mg	–	–
CCNC(=O)c1ccc(COc2nn3c(-c4cc(C)on4)nnc3cc2OC)nc1 [drawing 925]	11.4 µL/min/mg	–	–
CCNC(=O)c1ccc(COc2nn3c(-c4cc(C)on4)nnc3c3ccccc23)nc1 [drawing 926, reference compound]	26 µL/min/mg	–	–
COc1cc2nnc(-c3cc(C)on3)n2nc1OCc1ccc2c(n1)CCN(CCS(C)(=O)=O)C2 [Embodiment 113, 3-(7-Methoxy-6-((6-(2-(methylsulfonyl)ethyl)-5,6,7,8-tetrahydro-1,6-naphthalen-2-yl)methoxy)-[1,2,4]triazolo[4,3-b]pyridazin-3-yl)-5-methylisoxazole]	–	36.7%	191 µg/mL (≈ 383 µM)
COc1cc2nnc(-c3cc(C)on3)n2nc1OCc1cccc2nccn12 [Embodiment 135]	–	39.5%	35.4 µg/mL (≈ 93.8 µM)
COc1cc2nnc(-c3cc(C)on3)n2nc1OCc1ccc(C2(F)CN(C)C2)cn1 [Embodiment 124]	–	43.9%	365 µg/mL (≈ 859 µM)
COc1cc2nnc(-c3cc(C)on3)n2nc1OCc1ccc2nnc(C)n2n1 [Embodiment 216]	–	52.1%	167 µg/mL (≈ 425 µM)
COc1cc2nnc(-c3cc(C)on3)n2nc1OCc1cccnn1 [Embodiment 39]	–	36.5%	180 µg/mL (≈ 531 µM)
COc1ccc(COc2nn3c(-c4cc(C)on4)nnc3cc2OC)nn1 [Embodiment 43]	–	44.2%	48.7 µg/mL (≈ 132 µM)
COc1cc2nnc(-c3cc(C)on3)n2nc1OCc1nccc(OC)c1OC [Embodiment 7]	–	30.1%	37.8 µg/mL (≈ 94.9 µM)
COc1cc2nnc(-c3cc(C)on3)n2nc1OCc1ccc2c(n1)CCN(Cc1ncccn1)C2=O [Embodiment 88, 2-(((7-Methoxy-3-(5-methylisoxazol-3-yl)-[1,2,4]triazolo[4,3-b]pyridazin-6-yl)oxy)methyl)-6-(pyrimidin-2-ylmethyl)-7,8-dihydro-1,6-naphthyridin-5(6H)-one]	–	32.5%	60.3 µg/mL (≈ 121 µM)
COc1cc2nnc(-c3cc(C)on3)n2nc1OCc1ccc2nnc(C(C)C)n2n1 [Embodiment 214]	–	34.9%	237 µg/mL (≈ 562 µM)
CCS(=O)(=O)N1CCc2nc(COc3nn4c(-c5cc(C)on5)nnc4cc3OC)ccc2C1 [Embodiment 210]	–	43.4%	47 µg/mL (≈ 96.8 µM)
COCCCOc1ccc(COc2nn3c(-c4cc(C)on4)nnc3cc2OC)nc1 [Embodiment 9]	–	40.6%	60.3 µg/mL (≈ 141 µM)
CCN1CCc2nc(COc3nn4c(-c5cc(C)on5)nnc4cc3OC)ccc2C1=O [Embodiment 109]	–	47.3%	54 µg/mL (≈ 124 µM)
COCc1ccc(COc2nn3c(-c4cc(C)on4)nnc3cc2OC)nc1 [Embodiment 32]	–	41.6%	262 µg/mL (≈ 686 µM)
COc1cc2nnc(-c3cc(C)on3)n2nc1OCc1ccc(=O)n(CCCC#N)n1 [Embodiment 36]	–	25.9%	123 µg/mL (≈ 290 µM)
COc1cc2nnc(-c3cc(C)on3)n2nc1OCc1ccc(OCC2(C)COC2)nn1 [Embodiment 150]	–	46.2%	263 µg/mL (≈ 598 µM)

Compound	RLM [1]	inhibition at 0.1 µM (α5-GABAA receptor)	solubility thermodynamic at 4 h [2]
CCN1Cc2ccc(COc3nn4c(-c5cc(C)on5)nnc4cc3OC)nc2C1=O [Embodiment 100]	–	35.3%	70 µg/mL (≈ 166 µM)
COCCn1ncc2nc(COc3nn4c(-c5cc(C)on5)nnc4cc3OC)ccc21 [Embodiment 241]	–	51.3%	91.8 µg/mL (≈ 210 µM)
COc1cc2nnc(-c3cc(C)on3)n2nc1OCc1ccc2c(n1)CCN(C(=O)C(C)(C)C)C2 [Embodiment 206]	–	44.7%	34.8 µg/mL (≈ 72.8 µM)
CCN1Cc2ccc(COc3nn4c(-c5cc(C)on5)nnc4cc3OC)nc2C1 [Embodiment 68]	–	51.3%	146 µg/mL (≈ 358 µM)
COc1cc2nnc(-c3cc(C)on3)n2nc1OCc1ccc2c(n1)CCN(CC(=O)N1CCCC1)C2 [Embodiment 189]	–	52.4%	75.8 µg/mL (≈ 150 µM)
COCCOc1ccc(COc2nn3c(-c4cc(C)on4)nnc3cc2OC)nc1 [Embodiment 6]	–	42.2%	46.9 µg/mL (≈ 114 µM)
COCCN1Cc2ccc(COc3nn4c(-c5cc(C)on5)nnc4cc3OC)nc2C1 [Embodiment 99]	–	33.7%	222 µg/mL (≈ 508 µM)
COCCn1ccc2nc(COc3nn4c(-c5noc(C)n5)nnc4cc3OC)ccc2c1=O [Embodiment 130]	–	39.9%	30.9 µg/mL (≈ 66.5 µM)
COCCCOc1cc(C)c(COc2nn3c(-c4cc(C)on4)nnc3cc2OC)nn1 [Embodiment 156]	–	40.5%	73.8 µg/mL (≈ 167 µM)
COc1cc2nnc(-c3cc(C)on3)n2nc1OCc1ccc2nn(C3CN(C)C3)cc2n1 [Embodiment 233]	–	41.3%	245 µg/mL (≈ 547 µM)
COc1cc2nnc(-c3cc(C)on3)n2nc1OCc1cccc(C2CCNCC2)n1 [Embodiment 126]	–	38.3%	203 µg/mL (≈ 481 µM)
COc1cc2nnc(-c3cc(C)on3)n2nc1OCc1ccc2nn(C3CCOC3)cc2n1 (stereo not shown) [Embodiment 231]	–	40.3%	30.6 µg/mL (≈ 68.1 µM)
COc1cc2nnc(-c3cc(C)on3)n2nc1OCc1ccc(OC2CC3(COC3)C2)nn1 [Embodiment 179]	–	39%	44.9 µg/mL (≈ 99.5 µM)
COc1cc2nnc(-c3cc(C)on3)n2nc1OCc1ccc(OCC2(C)COC2)cn1 [Embodiment 170]	–	32.9%	66.1 µg/mL (≈ 151 µM)
COc1cc2nnc(-c3cc(C)on3)n2nc1OCc1ccc2c(n1)CCN(C1(CC#N)COC1)C2 [Embodiment 114, 2-(3-(2-(((7-Methoxy-3-(5-methylisoxazol-3-yl)-[1,2,4]triazolo[4,3-b]pyridazin-6-yl)oxy)methyl)-7,8-dihydro-1,6-naphthyridin-6(5H)-yl)oxetan-3-yl)acetonitrile]	–	36%	139 µg/mL (≈ 284 µM)
COc1cc2nnc(-c3cc(C)on3)n2nc1OCc1ccc(OCCN2CCOCC2)nn1 [Embodiment 164]	–	33.9%	309 µg/mL (≈ 660 µM)
COc1cc2nnc(-c3cc(C)on3)n2nc1OCc1ccc(OC2CCOCC2)cn1 [Embodiment 174]	–	43.5%	35.4 µg/mL (≈ 80.8 µM)
COc1cc2nnc(-c3cc(C)on3)n2nc1OCc1ccc(OCC2CCOC2)cn1 (stereo not shown) [Embodiment 173]	–	58.8%	32.8 µg/mL (≈ 74.8 µM)
